{"source": "patent US20260294852A1", "about": "“COSMETIC COMPOSITION FOR PREVENTING, ALLEVIATING OR AMELIORATING ALOPECIA” (LG CHEM, LTD., priority 2023, published 2026)", "key": {"TGF-β1 gene": {"system": "TGF-β1 gene", "experiment": "TGF-β1 gene expression level (real-time PCR, GAPDH-normalised) in human follicle dermal papilla cells", "assay_type": "cell-based", "conditions": "for mrna remaining at 0.0125 % / mrna remaining at 0.025 % / mrna remaining at 0.05 %: Homo sapiens, 24 h, 24 hours; for mrna remaining at 0.0125 %: 3HP 0.0125 wt. %; for mrna remaining at 0.025 %: 3HP 0.025 wt. %; for mrna remaining at 0.05 %: 3HP 0.05 wt. %", "protocol": "(§1) Human follicle dermal papilla cells (PromoCell GmbH) were cultured in human follicle dermal papilla cells growth medium (PromoCell GmbH) supplemented with fetal calf serum (FCS), bovine pituitary extract (BPE), basic fibroblast growth factor (bFGF), and insulin at 37° C. and 5% CO2.\n(§2) The cultured human follicle dermal papilla cells were divided into 5×10^4 cells in a 96-well plate, and when the cells reached 80% or more confluency, they were treated with the 3-hydroxypropionic acid aqueous solution according to Preparation Example 1 at four concentrations (3HP concentrations: 0 wt. %, 0.0125 wt. %, 0.025 wt. %, and 0.05 wt. %), and then cultured for 24 hours. Then, the total RNA in the cells was extracted, and cDNA was synthesized from the extracted RNA. The synthesized cDNA was subjected to real-time polymerase chain reaction. And, the relative quantitative analysis of each gene was performed using GAPDH (one of the house-keeping genes). The relative quantification (RQ) value was calculated according to the following Equation 2.\n(§3) In the Equation 2, ‘Treatment’ is the group treated with 3HP; ‘Control’ is the group not treated with 3HP; ‘Target gene’ is Srd5α1 and TGF-β1, and ‘House-keeping gene’ is GAPDH."}, "Ki67": {"system": "Ki67", "experiment": "Expression of cell proliferation-related factor protein Ki67 (immunofluorescence) in cultured scalp tissue", "assay_type": "cell-based, human", "conditions": "0.1% 3HP, compared to the negative control group", "protocol": "(§4) The ratio of hair follicle telogen and the expression level of hair follicle cell proliferation-related factor proteins depending on whether 3-hydroxypropionic acid was applied or not were evaluated according to the following methods.\nThe human hair follicles or scalp tissues provided for research purposes (IRB No. 4-2023-1052; Institutional Review Board, Severance Medical Center, Yonsei University College of Medicine) were washed several times with PBS to remove residual impurities, and randomly divided into each group. […]\nAfter the scalp tissue was treated with the test composition for 24 hours, the obtained tissue was prepared into a frozen block, and frozen sectioned at a thickness of 5 μm using a Cryostat microtome (Leica Biosystems, Germany), and the tissue sections were attached onto Silane-coated slides. […] Finally, the tissues were fixed with a fixative containing blue fluorescent DAPI (VECTASHIELD® mounting medium with DAPI; Vector laboratories) that stains the cell nucleus, and then images were taken at 100× magnification using a fluorescence microscope (M2; Zeiss). The percentage of Ki67-expressing cells among the total cells labeled with DAPI was measured from the captured images, and a higher value means a higher number of Ki67-expressing cells."}, "[1]": {"system": "Human follicle dermal papilla cells", "experiment": "Human follicle dermal papilla cell viability (WST / CCK-8)", "assay_type": "cell-based", "conditions": "for Human follicle dermal papilla cell viability: 24 hours", "protocol": "as §1\nThe cultured human follicle dermal papilla cells were divided into 5×10^3 cells in a 96-well plate, and when the cells reached 80% or more confluency, they were treated with the 3-hydroxypropionic acid aqueous solution according to Preparation Example 1 at four concentrations ([…]), and then cultured for 24 hours. WST substrate solution (high sensitivity water soluble tetrazolium salt, CCK-8, DOJINDO) was then added to the medium, and cultured at 37° C. for 2 hours.\nDuring the culture, a […] formazan was produced by the reaction between WST and intracellular dehydrogenase, and the absorbance (OD, wavelength 450 nm) was measured.\nIn Equation 1, the ‘experimental group’ is the group treated with an aqueous solution containing 3HP; the ‘control group’ is the medium containing only the WST substrate; and the ‘negative control group’ is the group in which a medium containing WST substrate was treated with an aqueous solution of 0% 3HP."}, "[2]": {"system": "5α-reductase gene (Srd5α1)", "experiment": "5α-reductase gene expression level (real-time PCR, GAPDH-normalised) in human follicle dermal papilla cells", "assay_type": "cell-based", "conditions": "for mrna remaining at 0.0125 % / mrna remaining at 0.025 % / mrna remaining at 0.05 %: Homo sapiens, 24 h, 24 hours; for mrna remaining at 0.0125 %: 3HP 0.0125 wt. %; for mrna remaining at 0.025 %: 3HP 0.025 wt. %; for mrna remaining at 0.05 %: 3HP 0.05 wt. %", "protocol": "as §1, §2, §3"}, "human hair follicles": {"system": "human hair follicles", "experiment": "Evaluation of the ratio of hair follicle telogen in DHT-treated anagen hair follicle tissue (ex vivo culture)", "assay_type": "cell-based", "conditions": "for Telogen ratio: 6 days vs day 0", "protocol": "as §4\nThe human hair follicles or scalp tissues provided for research purposes (IRB No. 4-2023-1052; Institutional Review Board, Severance Medical Center, Yonsei University College of Medicine) were washed several times with PBS to remove residual impurities, and randomly divided into each group. The hair follicles and scalp tissues were cultured in Williams' Medium E (Sigma) supplemented with 2 mM L-glutamine (Sigma-Aldrich), 10 μg/ml insulin (Sigma-Aldrich), 100 ng/ml hydrocortisone (Sigma-Aldrich), 0.1% fungizone (Gibco, USA), and 1% antibiotic-antimycotic (Gibco), and 1% penicillin-[…] (Gibco) at 37° C. in 5% CO2.\nTo induce the telogen in the anagen hair follicle tissue, the test composition was treated with 1 μM dihydrotestosterone (DHT). The medium was replaced every 3 days and cultured for 6 days. The ratio of hair follicle telogen was visually evaluated based on the ratio of hair follicles in which the telogen occurred for 6 days compared to day 0."}, "[3]": {"conditions": "under the treatment concentration"}}}
{"smiles": "O=C(O)CCO", "note": "[3HP, 3-hydroxypropionic acid]", "values": [{"measurement": "mrna remaining at 0.0125 %", "setting": "TGF-β1 gene; single run: Three times", "result": 78.5, "unit": "%"}, {"measurement": "mrna remaining at 0.0125 %", "setting": "TGF-β1 gene; single run: Two times", "result": 86.4, "unit": "%"}, {"measurement": "mrna remaining at 0.025 %", "setting": "TGF-β1 gene; single run: Three times", "result": 65.5, "unit": "%"}, {"measurement": "mrna remaining at 0.025 %", "setting": "TGF-β1 gene; single run: Two times", "result": 72.3, "unit": "%"}, {"measurement": "mrna remaining at 0.05 %", "setting": "TGF-β1 gene; single run: Once", "result": 131, "unit": "%"}, {"measurement": "mrna remaining at 0.05 %", "setting": "TGF-β1 gene; single run: Three times", "result": 118, "unit": "%"}, {"measurement": "mrna remaining at 0.05 %", "setting": "TGF-β1 gene; single run: Two times", "result": 140, "unit": "%"}, {"measurement": "expression of the TGF-β1 gene (in words)", "setting": "TGF-β1 gene; [3]", "result": "significantly inhibited"}, {"measurement": "proliferation effect of hair follicle cells (in words)", "setting": "Ki67", "result": "significantly increased"}, {"measurement": "Human follicle dermal papilla cell viability", "setting": "[1]; 3HP 0.025 wt. %, Average, SD 2.561, p-value 0.012 vs negative control (100%)", "result": 86.684, "unit": "%"}, {"measurement": "Human follicle dermal papilla cell viability", "setting": "[1]; 3HP 0.05 wt. %, Average, SD 0.735, p-value 0.001 vs negative control (100%)", "result": 85.841, "unit": "%"}, {"measurement": "Human follicle dermal papilla cell viability", "setting": "[1]; 3HP 0.05 wt. %, single run: Once", "result": 86.465, "unit": "%"}, {"measurement": "Human follicle dermal papilla cell viability", "setting": "[1]; 3HP 0.1%, Average, SD 2.416, p-value 0.003 vs negative control (100%)", "result": 75.333, "unit": "%"}, {"measurement": "cell viability (in words)", "setting": "[1]; under the above treatment concentrations", "result": "high"}, {"measurement": "mrna remaining at 0.0125 %", "setting": "[2]; single run: Three times", "result": 92.7, "unit": "%"}, {"measurement": "mrna remaining at 0.0125 %", "setting": "[2]; single run: Two times", "result": 81.5, "unit": "%"}, {"measurement": "mrna remaining at 0.025 %", "setting": "[2]; single run: Three times", "result": 91.4, "unit": "%"}, {"measurement": "mrna remaining at 0.025 %", "setting": "[2]; single run: Two times", "result": 88, "unit": "%"}, {"measurement": "mrna remaining at 0.05 %", "setting": "[2]; single run: Once", "result": 132, "unit": "%"}, {"measurement": "mrna remaining at 0.05 %", "setting": "[2]; single run: Three times", "result": 135, "unit": "%"}, {"measurement": "mrna remaining at 0.05 %", "setting": "[2]; single run: Two times", "result": 113, "unit": "%"}, {"measurement": "expression of the 5α-reductase gene (in words)", "setting": "[2]; [3]", "result": "significantly inhibited"}, {"measurement": "hair follicle telogen ratio (in words)", "setting": "human hair follicles; 0.1%, 0.5%, and 1.0% 3HP, compared to the DHT control group", "result": "significantly decreased"}, {"measurement": "Telogen ratio", "setting": "human hair follicles; DHT (1 μM) + 0.5% 3HP, DHT alone 40.000", "result": 0.000, "unit": "%"}, {"measurement": "Telogen ratio", "setting": "human hair follicles; DHT (1 μM) + 1.0% 3HP, DHT alone 40.000", "result": 0.000, "unit": "%"}]}
{"smiles": "O=C(O)CCCC[C@@H]1SC[C@@H]2NC(=O)N[C@@H]21", "note": "[Biotin, reference compound]", "values": [{"measurement": "Telogen ratio", "setting": "human hair follicles; DHT (1 μM) + 2 ng/ml Biotin, DHT alone 40.000", "result": 10.000, "unit": "%"}]}
{"smiles": "C[C@]12CCC(=O)C[C@@H]1CC[C@@H]1[C@@H]2CC[C@]2(C)[C@@H](O)CC[C@@H]12", "note": "[DHT, dihydrotestosterone, reference compound]", "values": [{"measurement": "Telogen ratio", "setting": "human hair follicles; 1 μM DHT alone (telogen inducer), Control 36.667", "result": 40.000, "unit": "%"}]}
{"smiles": "CC(C)(C)NC(=O)[C@H]1CC[C@H]2[C@@H]3CC[C@H]4NC(=O)C=C[C@]4(C)[C@H]3CC[C@]12C", "note": "[Finasteride, reference compound]", "values": [{"measurement": "Telogen ratio", "setting": "human hair follicles; DHT (1 μM) + 0.5 mM Finasteride, DHT alone 40.000", "result": 0.000, "unit": "%"}]}
